Reference: article PMC4728427, “Mechanism of allosteric activation of TMEM16A/ANO1 channels by a commonly used chloride channel blocker” (British Journal of Pharmacology, 2016)
Like-named read-outs stand apart in the source and are kept apart here.

Target: T1, Mouse TMEM16A (Mus musculus, UniProt Q8BHY3)
T1 construct: expressed in transfected cells; host or cells: HEK-293T
T1 sequence (Q8BHY3 1-960): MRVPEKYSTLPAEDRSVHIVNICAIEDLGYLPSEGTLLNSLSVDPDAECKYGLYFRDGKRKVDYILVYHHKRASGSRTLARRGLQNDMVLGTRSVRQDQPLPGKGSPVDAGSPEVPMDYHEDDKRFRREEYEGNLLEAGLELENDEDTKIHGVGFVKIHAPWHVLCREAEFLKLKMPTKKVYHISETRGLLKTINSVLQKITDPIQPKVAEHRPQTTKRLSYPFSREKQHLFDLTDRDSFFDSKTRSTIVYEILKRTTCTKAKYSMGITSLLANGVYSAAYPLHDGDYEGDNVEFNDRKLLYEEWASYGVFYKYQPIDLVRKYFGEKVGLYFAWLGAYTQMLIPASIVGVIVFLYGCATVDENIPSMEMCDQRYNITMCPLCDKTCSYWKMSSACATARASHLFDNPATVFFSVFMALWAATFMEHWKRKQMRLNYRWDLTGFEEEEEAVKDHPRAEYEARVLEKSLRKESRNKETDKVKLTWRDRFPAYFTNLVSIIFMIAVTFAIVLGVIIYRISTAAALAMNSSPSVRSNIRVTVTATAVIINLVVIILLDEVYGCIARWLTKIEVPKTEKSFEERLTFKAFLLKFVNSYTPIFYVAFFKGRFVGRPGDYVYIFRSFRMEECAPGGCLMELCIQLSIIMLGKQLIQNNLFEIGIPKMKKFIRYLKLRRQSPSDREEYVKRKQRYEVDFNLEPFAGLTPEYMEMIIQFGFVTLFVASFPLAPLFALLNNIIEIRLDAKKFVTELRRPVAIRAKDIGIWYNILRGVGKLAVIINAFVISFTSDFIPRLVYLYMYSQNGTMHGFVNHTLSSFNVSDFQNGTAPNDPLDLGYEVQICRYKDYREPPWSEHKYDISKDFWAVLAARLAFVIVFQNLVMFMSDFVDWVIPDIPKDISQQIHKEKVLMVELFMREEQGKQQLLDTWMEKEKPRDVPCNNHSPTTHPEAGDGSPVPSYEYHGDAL
Experiment: Time-course of current block analysed by Langmuir formalism (kon, koff), 12.5 μM [Ca2+]i
Format: cell-based
Settings: for Ki: read-out: Ki calculated as koff/kon
Procedure: To investigate the precise mechanism by which extracellular A9C inhibits TMEM16A channels, macroscopic whole‐cell currents were recorded in the presence of 12.5 μM [Ca^2+]i and in response to 250 ms steps to various V m test pulse from a holding V m of −70 mV. The negative holding V m was used to prevent channel block before the test pulse was elicited. […] The time‐course of this decrease was described by a single‐exponential function characterized by a time constant τ B. The extent of the decrease in current was measured for various [A9C]ext and various V m test pulse and then plotted relative to the current measured in the absence of A9C (I 0) (Figure 3B). The γ values were close to 1 at each V m. In contrast, K i decreased as the V m was increased (Figure 3C). […] Thus, A9C appeared to block TMEM16A channels according to a Woodhull mechanism, consistent with a single A9C molecule blocking the channel pore.
The K i at various V m can also be estimated from analysis of the time‐course of current inhibition at various V m (see Supporting Information for details). K i estimated from this analysis were plotted against the V m in Figure 3C (open symbols). It is clear that K i estimated in this way is similar to the K i estimated from the Hill fit of the dose–response curves (filled symbols). […]
SUPPLEMENTARY INFORMATION
TMEM16A currents were measured with the whole-cell or inside-out configuration of
the patch-clamp technique using an Axon 200B amplifier (Molecular Devices, USA)
controlled with GE-pulse software (http://users.ge.ibf.cnr.it/pusch/programs-mik.htm).
Currents were filtered at 2-5 kHz and sampled at 10 kHz, unless stated otherwise.
Pipettes were prepared from borosilicate glass capillary tubes (Harvard Apparatus,
USA) using a Narishige PC-10 pipette puller (Narishige, Japan). Pipette tip diameter
yielded a resistance of 2.2 to 2.8 MΩ in the working solutions. The bath was grounded
through a 3 M KCl agar bridge connected to a Ag-AgCl reference electrode. In whole-
cell recordings, the series resistance was usually compensated by ≥70 % to achieve a
maximal effective series resistance generally lower than ~5 MΩ. To allow for
equilibration of the pipette solution with the cell interior, recordings started 5 min after
establishing the whole-cell configuration (Manoury, Tamuleviciute & Tammaro, 2010).
Experiments were conducted at 20-22 °C. The cell capacitance was assessed by
measuring the area beneath a capacitive transient elicited by a 10 mV step or via the
cell capacity compensation circuit of the amplifier.
Estimation of Ki at various Vm using the Langmuir formalism
Detailed kinetic analysis of TMEM16A channel activity is likely to require complex
models to account for the effects of Ca2+ and voltage on channel gating (Hartzell,
Putzier & Arreola, 2005). However, a simplified two-state kinetic scheme may be
applicable in conditions in which high [Ca2+]i is maintained to maximally activate the
TMEM16A channel. Under these conditions, and assuming that a molecule of A9C
binding into the pore of a TMEM16A channel results in the complete block of Cl- fluxes,
the Langmuir formalism applies:
Where O represents the conductive state and OB(A9C) is the A9C-blocked state. kon and
koff are the association and dissociation constant, respectively and Ki = koff/kon is the
apparent equilibrium dissociation constant.
The scheme (I) refers to the following differential equations: […]
(1 picture or pasted object on this page, not shown here)
Where O and OB(A9C) describe the probability of being open (unliganded) or blocked,
Thus, in the presence of a fixed [A9C]ext, when the Vm is stepped to a defined test-pulse
Where O∞ is the value of O(t) at the steady state and O(0) is the value of O(t) at the
beginning of the test pulse while τB is the time constant.
fitted with supplementary equation 3 and the resulting τB-1 plotted versus [A9C]ext
(Suppl. Fig.2). Supplementary equation 5 was used to fit the τB-1 obtained at a given Vm, […]

## O=C(O)c1c2ccccc2cc2ccccc12 [A9C, Anthracene‐9‐carboxylic acid]
Vm 20 mV
  koff: 94 ± 5 s⁻¹
  Ki: 168 µM
Vm 40 mV
  koff: 71 ± 9 s⁻¹
  Ki: 104 µM
Vm 60 mV
  koff: 49 ± 13 s⁻¹
  Ki: 62 µM
Vm 80 mV
  koff: 34 ± 9 s⁻¹
  Ki: 38 µM
Vm 100 mV
  koff: 12 ± 25 s⁻¹
  Ki: 12 µM
Vm 120 mV
  koff: 21 ± 17 s⁻¹
  Ki: 19 µM
